Laboratory results taken from patent US6555113B1, “Modulation of cholesteryl ester transfer protein (CETP) activity” (priority 1995, dated 2003).

Key:
[1] = set-up: species or system New Zealand White Rabbits; conditions: rabbit, in vivo
recombinant human CETP [2] = biological target: T1, recombinant human CETP (Homo sapiens, UniProt P11597); conditions: in vivo
recombinant human CETP [3] = biological target: T1, recombinant human CETP; conditions: in vivo; remark: listed apart in the source
[4] = set-up: species or system New Zealand White Rabbits; conditions: rabbit, in vivo; remark: listed apart in the source
[5] = system: aortic atherosclerotic lesions; test: Measurement of aortic atherosclerotic lesions in rabbits, cholesterol-fed model of atherosclerosis; type: in vivo, New Zealand White Rabbits
Experimental: The synthetic vaccine peptide (SEQ ID NO:2) of Example 1 above was injected into New Zealand White Rabbits to test the ability of the vaccine peptide to elicit an immune response against endogenous rabbit CETP and to protect or reduce development of atherosclerosis. Group I contained six rabbits (rb#1-#6), each of which was subjected to a protocol for administration of the vaccine peptide. Control Group II contained six rabbits (rb#7-12) that were vaccinated but not fed a high cholesterol diet. Control Group III contained six rabbits (rb#13-18) that were not vaccinated and not fed a high cholesterol diet. Control Group IV contained six rabbits (rb#19-24) that were not vaccinated but fed a high cholesterol diet. The high cholesterol diet was administered starting four weeks after a final boost with the vaccine and continued for a total of 17 weeks.
On Day 0, peptide (100 μg) was suspended in the RIBI™ adjuvant system (RIBI ImmunoChem Research, Inc., Hamilton, Mont.) according to manufacturer's instructions to a final volume of […], and each rabbit of Group I and II were injected at two intramuscular sites (250 μl per site), subcutaneously at two sites (100 μl per site), and six intradermal sites (50 μl per site). On Day 28, a boost (100 μg of peptide in RIBI™ adjuvant system) was administered as on Day 0. On Day 49, another boost (100 μg of peptide in RIBI™ adjuvant system) was administered as on Day 0. […]
Aortas were removed from all surviving rabbits (four in Groups I and IV, five in Group II, six in Group III) after 17 weeks (Day 196 from primary vaccination) on cholesterol supplemented diet in Groups I and IV and control diet (no cholesterol supplement) in Groups II and III. […] The lesions were measured and the data quantitated using a computer program (The Morphometer, Woods Hole Educational Associated, Woods Hole, Mass.).

recombinant human CETP [6] = biological target: T1, recombinant human CETP; conditions: in vivo; remark: listed apart in the source

T1 sequence (P11597 18-493): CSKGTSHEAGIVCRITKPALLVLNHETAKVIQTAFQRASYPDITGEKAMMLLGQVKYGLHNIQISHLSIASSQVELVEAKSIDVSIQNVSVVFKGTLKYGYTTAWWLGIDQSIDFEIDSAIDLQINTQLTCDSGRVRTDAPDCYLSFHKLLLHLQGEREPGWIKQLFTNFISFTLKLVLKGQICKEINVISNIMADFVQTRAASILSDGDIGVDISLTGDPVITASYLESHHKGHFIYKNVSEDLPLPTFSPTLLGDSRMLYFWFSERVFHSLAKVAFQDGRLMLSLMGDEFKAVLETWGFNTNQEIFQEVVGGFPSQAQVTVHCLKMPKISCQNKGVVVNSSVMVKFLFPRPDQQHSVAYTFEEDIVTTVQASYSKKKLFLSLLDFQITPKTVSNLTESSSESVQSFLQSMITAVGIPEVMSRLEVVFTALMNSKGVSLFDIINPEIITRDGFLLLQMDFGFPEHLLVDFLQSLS

Sequence: CQYIKANSKFIGITEFGFPEHLLVDFLQSLS [SEQ ID NO:2]
- increase in HDL-C concentrations compared to prebleed plasma samples [1]: 2 to 5 fold
- plasma HDL concentrations over time [1]: increasing plasma HDL concentrations over time
- ratio of Non-HDL/HDL [1]: generally declined
- total cholesterol in plasma samples [1]: no significant difference
- titers of anti-CETP antibody by direct ELISA (recombinant human CETP [2]): All Group I mice had significant titers
- inhibition of TP2 binding to CETP by plasma (recombinant human CETP [3]): observed in plasma sample from two of the three rabbits
- levels of HDL-C compared to pre-vaccination levels [4]: showed an increase
- size of atherosclerotic lesions compared to non-vaccinated animals ([5]; Group I (vaccinated, cholesterol-supplemented diet) vs Group IV, 17 weeks on 0.25% cholesterol diet): statistically significant reduction
- average total area of the aorta covered by lesions ([5]; Group I vaccinated animals, 17 weeks on cholesterol supplemented diet, Oil Red O staining): 19%
- reduction of the area of atherosclerotic lesions ([5]; animals fed cholesterol supplemented diets, vaccinated vs non-vaccinated): greater than 50%
- anti-CETP antibody that competed with Mab TP2 for binding to recombinant human CETP (recombinant human CETP [6]): three of the six mice
